Test results: a melting point compilation (Tetko et al.; mined from patent text by program, amines drawn as free bases though some values may be those of a salt)

melting point | SMILES
163 to 165 °C | COc1cccc(CCc2c(CCNC(=O)CCCCC(=O)NCCc3ccc(N)cc3)ccc(OC)c2OC)c1
149 to 151 °C | CC(C)(C)c1cc(NS(C)(=O)=O)cc(C(C)(C)C)c1O
177 to 178 °C | COc1ccc(S(=O)(=O)NCCc2ccc(C(=O)O)cc2)cc1
104 to 105 °C | CS(=O)c1ccc(-c2cc(C(F)F)nn2-c2ccc3c(c2)OCO3)cc1 (stereo unspecified)
94 to 96 °C | CCCCC1OC(=O)c2cc(N)c(N)cc21 (stereo unspecified)
100 to 103 °C | COc1ccc(-c2ncnc(-c3ccc(C(F)(F)F)cc3F)c2N)c(O)c1
253 °C | Cc1cc(-c2cnn3c(C(F)(F)F)cc(-c4ccc(C(F)(F)F)c(C)c4)nc23)cc(C)n1
63 to 64 °C | CCCc1cc(C(=O)OC)ccc1OCCCCCOc1ccc2c(c1CCC)OC(C(=O)OC)CC2 (stereo unspecified)
249 to 250 °C | O=C1CCCC2=C1C(c1cccc(Cl)c1)C1=C(CCCC1)N2 (stereo unspecified)
162 to 163 °C | C=CCSc1cc(C(=O)O)cc(N=Nc2cc(C(=O)O)cc(SCC=C)c2C(=O)c2ccccc2)c1C(=O)c1ccccc1
168 °C | N#Cc1ccc(-c2ccc(SC3SCC(O)C(O)C3O)cc2)cc1 (stereo unspecified)
185 to 186 °C | COC(=O)C=Cc1ccc(OCc2nc(-c3ccc4ccccc4c3)oc2C)cc1
175 to 176 °C | Nc1nc2[nH]c(CCCc3ccc(C(=O)N[C@@H](CCC(=O)O)C(=O)O)s3)cc2c(=O)[nH]1
112 to 114 °C | CC(C)(C)OC(=O)N1CCC(CCN2C(=O)c3ccccc3C2=O)CC1
276 to 280 °C | COc1ccc(OC)c(C#N)c1C#N
158 °C | Cc1ccc2nc(-c3ccccc3)cc(OCC(=O)N3CCOCC3)c2c1
227 to 230 °C | N#Cc1ccc(CC(=O)c2c(O)c3cccnc3n(-c3ccccc3)c2=O)cc1
293 °C | N#Cc1c(N2CCN(C(=O)c3ccco3)CC2)c2cc(F)cnc2n(CC(=O)c2ccccc2)c1=O
108 to 110 °C | CCOC(=O)c1c(N)sc2c1CCN(CCCc1ccccc1)C2
131 to 133 °C | O=C1Cc2ccc(F)cc2C(c2ccc(Cl)cc2)N1 (stereo unspecified)
151 to 152 °C | COc1ccc(Cl)cc1C(=O)NC1COc2cc(C)ccc2C1O (stereo unspecified)
198 to 200 °C | CCCOCCSc1ccc(-c2ccc3c(c2)C=C(C(=O)Nc2ccc(CN(C)C4CCOCC4)cc2)CCS3(=O)=O)cc1
58.5 to 60.5 °C | CCCCCCCCCCCCCCC(NC(C)=O)(C(=O)OCC)C(=O)OCC
192 to 193 °C | COc1ccc(N2CCN(c3ccc(OC)nc3-c3ccc(N(C)C)cc3)CCC2=O)cc1

melting point | SMILES
305 to 307 °C | Cn1nc(N)c2sc3cc(O)c(O)cc3c21
178 to 179 °C | CC(C)c1[nH]nc(C(N)=O)c1N
218 to 220 °C | CCCCc1nn(-c2ccc([N+](=O)[O-])cc2C(F)(F)F)c(=O)n1Cc1ccc(-c2ccccc2S(N)(=O)=O)cc1
144 to 145 °C | O=[N+]([O-])c1ccc(OCCc2ccc(CO)cn2)cc1
66 to 68 °C | Cc1sc(CO)cc1CC#N
214 to 218 °C | CC(=O)NCc1nc2c(N)nc3ccccc3c2n1CC(C)C
128 to 130 °C | CN1CCc2c(c3ccccc3n2CCc2nc(-c3ccccc3)cs2)C1
106 to 108 °C | CC(C)c1sc(-c2nccs2)c2c1C(=O)CC(C)(C)C2
102 to 104 °C | CCn1c(CO)nc(C(C)C)c1Sc1cc(F)cc(F)c1
124 °C | CC(C)OC(=O)C(C)(C)Oc1ccc(C(=O)c2ccc(O)cc2)cc1
113 to 114 °C | OC1(C#Cc2cccc(Cl)c2)CCCNC1 (stereo unspecified)
222 to 223 °C | Cc1oc2c(-c3ccc(F)cc3)c(-c3ccc(S(C)(=O)=O)cc3)nn2c1-c1ccc(Cl)s1
> 360 °C | O=C1C(Br)=CC2(C=C1Br)CCNC1=C2C2=NCCc3c[nH]c(c32)C1=O
254 to 257 °C | Cc1cccc(Cl)c1CNc1c(NC(C)(C)C)c(=O)c1=O
370 to 380 °C | Cn1c(=O)c(=O)[nH]c2cc([N+](=O)[O-])c([N+](=O)[O-])cc21
66 to 67 °C | C#CCCCCOc1cc(C=O)ccc1OC
126 to 130 °C | Cc1ccc(C=CCN2CCc3nc(N)sc3CC2)cc1
147 to 149 °C | Cc1noc(NS(=O)(=O)c2ccsc2C/C=C/c2ccc3c(c2)OCO3)c1Br
170 to 171 °C | CCc1cccc2c3c([nH]c12)[C@@]1(CC(=O)O)CC[C@H]1CC3 (relative stereo)
138 to 140 °C | Cc1cc(C)cc(Sc2c(C(C)C)c(=O)[nH]c(=O)n2CCC2C=CCC2)c1 (stereo unspecified)
180 °C | CC(C)(O)c1ccc(-c2ccc(N3C[C@H](Cn4ccnn4)OC3=O)cc2F)cn1
231 °C | COc1ccc(-c2ncc(-c3cnc(-c4ccccc4)[nH]3)cn2)cc1OC
75 to 76 °C | Cc1cc(F)ccc1NCC(=O)NCc1ccccc1
183 °C | CNc1cc(Cc2cnc(N)nc2N)cc(N(C)C)c1OC

melting point | SMILES
300 °C | Cc1nc2c(cnn2-c2c(Cl)cc(C(F)(F)F)cc2Cl)c(=O)[nH]1
94 to 102 °C | O=C(Nc1ccccn1)c1cc2ccnc(Cl)c2[nH]1
52 to 54 °C | COC(=O)Cc1ccc(C#N)cc1C
290 to 293 °C | COCc1c(-c2nnc(N)o2)ncc2[nH]c3ccc(OCc4ccccc4)cc3c12
40 to 43 °C | CCCCCCCCCCCCCCCCn1c(C2=CC(=O)c3ccccc3C2=O)ccc1C1=CC(=O)c2ccccc2C1=O
201 to 202 °C | N=C(N)c1cccc(CN(C(=O)Nc2ccc(-c3ccccc3S(N)(=O)=O)cc2)c2ccccc2)c1
146 to 149 °C | CC(C)(C)OC(=O)C=Cc1ccc(O)cc1C=NO
168 to 170 °C | CC1CN(Cc2ccccc2)C(=O)C(=C2SC=CS2)C1=O (stereo unspecified)
153 to 154 °C | COc1ccccc1N1CCN(C(=O)Nc2cc(C(C)=O)c(C)nc2OC)CC1
64.7 to 66.1 °C | CCOC(=O)NCCS(=O)CC(=O)NCC=CCOc1cccc(CN2CCCCC2)c1 (stereo unspecified)
210 to 212 °C | COc1ccc2c(c1OC)C(C)NC(=O)N2 (stereo unspecified)
237 to 240 °C | CN(C)C(=O)c1cnn(C)c1C(=O)Nc1ccn2nc(N3CCOCC3)nc2c1
53 to 57 °C | COC(=O)Cc1ccc(OCCNC(=O)C2Cc3ccccc3N2S(=O)(=O)c2ccc(-c3cccc(C(F)(F)F)c3)cc2)cc1C (stereo unspecified)
61 to 63 °C | O=C(CC1CCCCC1=O)c1ccc([N+](=O)[O-])cc1 (stereo unspecified)
202 to 204 °C | Cc1c(S(=O)(=O)c2ccccc2)cc(C(C)(C)C)c(O)c1C(=O)Nc1ccc([N+](=O)[O-])cc1Cl
145 to 146 °C | CC(C)n1nc(-c2c(-c3ccccc3)nn3ccc(OCc4cccnc4)cc23)ccc1=O
132 to 135 °C | CC(=O)N1CCC(NC(=O)N(CCCN2CCC(Cc3ccccc3)CC2)c2ccccc2)CC1
208 °C | CCOC(=O)c1cn(CCCl)c2cc(N3CCN(C)CC3)c(F)cc2c1=O
102 to 107 °C | O=C(CCCN1CCN(c2cccc(Cl)c2)CC1)N1CCc2ccccc21
146 to 150 °C | COc1ccc2c(c1)CC[C@@H](O)[C@@H]2n1nc(-c2c(-c3ccccc3)nn3ccccc23)ccc1=O (relative stereo)
154 to 155 °C | Cc1ccc(SN=C2C(=O)N3C(C(=O)OC(c4ccccc4)c4ccccc4)=C(CSc4nnnn4C)CSC23)cc1 (stereo unspecified)
89 to 91 °C | CNS(=O)(=O)Oc1ccc2c(c1)C(C)(C)C(OC)O2 (stereo unspecified)
232 to 233 °C | O=C(C=Cc1ccc(-c2nnn[nH]2)cc1)N1CCc2c([nH]c3ccccc23)C1c1ccc2c(c1)OCO2 (stereo unspecified)
119 to 121 °C | CCO/N=C(\C)[C@H]1CC[C@H]2[C@@H]3CC=C4C[C@@H](O)CC[C@]4(C)[C@H]3CC[C@]12C

melting point | SMILES
112 to 114 °C | COc1cnc(N)c2ccccc12
188 °C | CCOC(=O)C1=C(C)Nc2nc(N3CCOCC3)nc(N3CCOCC3)c2C1c1ccccc1OC (stereo unspecified)
89 to 91 °C | Fc1ccc(Oc2ccnc3cc(Cl)ccc23)cc1
246 to 252 °C | CCNC1=NS(=O)(=O)c2cc(F)c(F)cc2N1
124 to 126 °C | O=C(NN1CC=CCC1)Oc1ccccc1
114 to 116 °C | O=Cc1ccc(OC2CCN(c3ccccn3)CC2)cc1
87 to 88 °C | CCN(CC)C(=O)n1ccc(Sc2cccc(Cl)c2C)n1
113 to 115 °C | CN1CCCC1=NC(=O)Nc1ccc(F)cc1
116 to 117 °C | CC(C)(C)OC(=O)CNC(=O)c1ccc(N)c(Cl)c1
238 to 240 °C | COc1cc(Nc2c(C#N)cnc3cc(C#Cc4ccccn4)ccc23)c(Cl)cc1Cl
81 to 83 °C | CC(=O)C(C(=O)N(CCN(C)C)c1ccccc1)=C(N)c1ccccc1
179 to 180 °C | COc1ccc(S(=O)(=O)Nc2ccccc2NC(=O)c2cccnc2)cc1
144 to 147 °C | CCC(c1ccccc1)(c1ccccc1)c1ccnc(C(N)=O)c1
119 to 123 °C | CCCCC1(CCCC)CS(=O)(=O)c2ccc(N(C)C)cc2[C@@H](c2ccc(OCCCCCSc3nnnn3CC(=O)O)cc2)[C@H]1O
98 to 106 °C | CC=CCn1c(C)c(C)c2cnnc(CCc3ccccc3)c21
196 to 197 °C | O=C(Nc1ccccn1)c1sc(Nc2ccccc2)c2c1CCc1cnoc1-2
272 °C | Nc1ncnc2[nH]cc(-c3ccc(Oc4ccccc4)cc3)c12
204 °C | CC(=O)OCC1OC(n2c3ncccc3c3c4c(n5cncc5c32)C(=O)N(C)C4=O)C(OC(C)=O)C(OC(C)=O)C1OC(C)=O (stereo unspecified)
192 to 193 °C | COc1ccc2c(cc3n2Cc2ccccc2-3)n1
75 to 77 °C | OCCc1nccn1CCCCc1ccc(OCc2ccccc2)cc1
137 to 142 °C | Cc1nc(N2CCc3ccccc3CC2)c(C#N)c(=O)n1N
209 to 210 °C | CCC(C)(C)c1ccc(OCCCNC(=O)c2cc([N+](=O)[O-])c3ccccc3c2O)c(C(C)(C)CC)c1

SMILES | melting point
CCC1(c2ccccc2)C(=O)N(CCO)C(=O)N(CCO)C1=O | 107 to 109 °C
N#Cc1nn(-c2c(Cl)cc(C(F)(F)F)cc2Cl)c(N)c1-c1ccoc1S(=O)C(F)(F)F (stereo unspecified) | 141 to 142 °C
